Publication PMC3914206

Key:
Assay type in all cases: binding
Settings in all cases: Compound Concentration 10 µM
panel of 442 kinases [1] = target: T1, panel of 442 kinases (Homo sapiens, UniProt O75116)
T1 construct: purchased KINOMEscan
Source text: (§1) We assessed the selectivity of members of this scaffold using the KINOMEscan methodology across a near comprehensive panel of 442 kinases [[18,27]].

panel of 442 kinases [2] = target: T2, panel of 442 kinases (Homo sapiens, UniProt P53778)
T2 construct: purchased KINOMEscan
T2 sequence (P53778 1-367): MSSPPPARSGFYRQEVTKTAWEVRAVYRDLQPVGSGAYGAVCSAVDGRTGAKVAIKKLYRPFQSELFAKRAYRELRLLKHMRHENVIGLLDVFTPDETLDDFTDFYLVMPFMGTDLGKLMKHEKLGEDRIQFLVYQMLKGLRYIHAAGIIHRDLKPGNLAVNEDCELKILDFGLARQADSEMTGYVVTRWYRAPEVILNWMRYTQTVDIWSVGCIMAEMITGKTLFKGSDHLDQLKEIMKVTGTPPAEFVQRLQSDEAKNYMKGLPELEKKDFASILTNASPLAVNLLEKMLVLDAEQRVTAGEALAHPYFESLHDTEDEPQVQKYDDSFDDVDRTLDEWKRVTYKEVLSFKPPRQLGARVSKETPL
Source text: as §1

panel of 442 kinases [3] = target: T3, panel of 442 kinases (Homo sapiens, UniProt Q9NQU5)
T3 construct: purchased KINOMEscan
Source text: as §1

T3 sequence (Q9NQU5 whole entry): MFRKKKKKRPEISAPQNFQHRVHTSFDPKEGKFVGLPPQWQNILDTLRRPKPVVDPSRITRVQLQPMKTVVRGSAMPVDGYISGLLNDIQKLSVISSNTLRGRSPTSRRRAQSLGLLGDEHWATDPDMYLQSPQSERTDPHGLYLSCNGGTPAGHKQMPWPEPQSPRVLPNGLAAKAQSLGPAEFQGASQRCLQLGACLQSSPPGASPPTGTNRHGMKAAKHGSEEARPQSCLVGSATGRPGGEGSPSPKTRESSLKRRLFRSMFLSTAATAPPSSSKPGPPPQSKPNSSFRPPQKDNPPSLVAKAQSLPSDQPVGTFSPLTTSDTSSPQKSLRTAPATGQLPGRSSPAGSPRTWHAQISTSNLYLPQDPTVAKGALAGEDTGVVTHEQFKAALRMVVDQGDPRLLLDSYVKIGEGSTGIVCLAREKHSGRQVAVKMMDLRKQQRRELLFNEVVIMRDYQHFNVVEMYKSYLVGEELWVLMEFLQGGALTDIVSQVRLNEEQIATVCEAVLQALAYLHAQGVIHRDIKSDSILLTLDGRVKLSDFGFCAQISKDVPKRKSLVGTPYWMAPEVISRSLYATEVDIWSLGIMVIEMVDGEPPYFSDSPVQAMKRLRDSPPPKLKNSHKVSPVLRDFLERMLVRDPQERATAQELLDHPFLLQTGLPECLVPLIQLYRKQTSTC
T1 sequence (O75116 whole entry): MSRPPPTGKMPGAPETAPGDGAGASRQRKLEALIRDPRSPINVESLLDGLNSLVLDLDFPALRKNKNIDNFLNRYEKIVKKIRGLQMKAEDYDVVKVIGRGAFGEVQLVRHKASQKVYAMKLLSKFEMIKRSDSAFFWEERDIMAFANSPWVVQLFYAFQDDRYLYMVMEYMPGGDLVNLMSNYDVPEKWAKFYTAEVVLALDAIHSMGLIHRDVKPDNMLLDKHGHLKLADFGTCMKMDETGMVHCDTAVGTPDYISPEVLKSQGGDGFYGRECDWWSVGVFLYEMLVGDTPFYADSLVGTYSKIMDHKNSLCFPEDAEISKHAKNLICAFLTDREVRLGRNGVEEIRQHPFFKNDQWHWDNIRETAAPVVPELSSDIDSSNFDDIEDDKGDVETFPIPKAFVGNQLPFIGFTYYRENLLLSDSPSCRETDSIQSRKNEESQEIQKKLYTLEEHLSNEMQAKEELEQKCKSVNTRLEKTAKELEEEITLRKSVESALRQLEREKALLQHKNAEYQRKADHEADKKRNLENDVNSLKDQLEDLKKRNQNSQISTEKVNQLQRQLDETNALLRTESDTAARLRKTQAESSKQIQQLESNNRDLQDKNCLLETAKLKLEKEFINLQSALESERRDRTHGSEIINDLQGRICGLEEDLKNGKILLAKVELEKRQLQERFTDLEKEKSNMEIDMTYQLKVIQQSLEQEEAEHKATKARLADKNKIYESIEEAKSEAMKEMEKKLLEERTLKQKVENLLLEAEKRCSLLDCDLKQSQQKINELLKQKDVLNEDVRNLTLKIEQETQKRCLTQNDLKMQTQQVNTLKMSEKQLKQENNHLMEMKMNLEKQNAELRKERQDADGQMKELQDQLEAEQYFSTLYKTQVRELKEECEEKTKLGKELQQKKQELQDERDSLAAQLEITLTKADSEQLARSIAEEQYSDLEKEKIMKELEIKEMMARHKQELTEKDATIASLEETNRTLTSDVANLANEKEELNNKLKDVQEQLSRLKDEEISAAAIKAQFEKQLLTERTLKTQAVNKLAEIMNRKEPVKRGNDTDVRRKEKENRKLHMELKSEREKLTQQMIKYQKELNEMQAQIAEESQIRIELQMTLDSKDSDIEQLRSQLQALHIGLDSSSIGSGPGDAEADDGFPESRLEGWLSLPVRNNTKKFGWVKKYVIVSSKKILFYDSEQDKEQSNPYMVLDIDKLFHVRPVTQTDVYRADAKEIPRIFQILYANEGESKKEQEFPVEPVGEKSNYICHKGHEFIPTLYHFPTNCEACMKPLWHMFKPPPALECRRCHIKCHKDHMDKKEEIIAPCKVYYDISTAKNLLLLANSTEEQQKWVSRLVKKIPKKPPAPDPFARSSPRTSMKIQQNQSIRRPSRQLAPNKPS

In the case of CCOc1cc(C(=O)N2CCC(N3CCN(C)CC3)CC2)ccc1Nc1ncc2c(n1)N(C1CCCC1)c1ccccc1C(=O)N2C [Compound 26], the “KINOMEscan: ROCK2” value (panel of 442 kinases [1]) is reported as 83, the “KINOMEscan: p38-gamma” value (panel of 442 kinases [2]) is reported as 32 and the “KINOMEscan: PAK6” value (panel of 442 kinases [3]) is reported as 100.

COc1cc(C(=O)N2CCC(N3CCN(C)CC3)CC2)ccc1Nc1ncc2c(n1)N1CCc3cccc(c31)C(=O)N2C [Compound 24] was tested, and the “KINOMEscan: ROCK2” value (panel of 442 kinases [1]) was 65.

For COc1cc(C(=O)N2CCC(N3CCN(C)CC3)CC2)ccc1Nc1ncc2c(n1)N(C)c1ccccc1C(=O)N2C [15 (LRRK2-IN-1)], the “KINOMEscan: ROCK2” value (panel of 442 kinases [1]) was 87, the “KINOMEscan: p38-gamma” value (panel of 442 kinases [2]) was 76 and the “KINOMEscan: PAK6” value (panel of 442 kinases [3]) was 98.

COc1cc(C(=O)N2CCC(N3CCN(C)CC3)CC2)ccc1Nc1ncc2c(n1)N(C1CCCC1)c1ccccc1C(=O)N2C [Compound 25, 11-cyclopentyl-2-((2-methoxy-4-(4-(4-methylpiperazin-1-yl)piperidine-1-carbonyl)phenyl)amino)-5-methyl-5H-benzo[e]pyrimido[5,4-b][1,4]diazepin-6(11H)-one] was tested, and the “KINOMEscan: ROCK2” value (panel of 442 kinases [1]) was 79, the “KINOMEscan: p38-gamma” value (panel of 442 kinases [2]) was 88 and the “KINOMEscan: PAK6” value (panel of 442 kinases [3]) was 86.
